Source: ChEMBL document CHEMBL5584362, “Sucurchalasins A and B, Sulfur-Containing Heterodimers of a Cytochalasan and a Macrolide from the Endophytic Fungus Aspergillus spelaeus GDGJ-286” (J Nat Prod, 2024)
In brackets after ≈: the same amount, converted by molar mass. Activity calls are given as the source filed them. The calls are words filed in the database; no cut-off is given here.

Tested on: A2780
Experiment: Induction of apoptosis in human A2780 cells assessed as increase in late apoptotic cells measured after 48 hrs by Annexin V-FITC/PI staining based FACS analysis
Type: functional, cell-based
Conditions: dose 1-9 µM

Compound	Activity
CC1=C[C@@H]2/C=C(\C)CC[C@@H](O)C(=O)C[C@@H](S[C@@H]3CCC[C@H](C)OC(=O)Cc4cc(O)cc(O)c4C(=O)C3)C(=O)[C@]23C(=O)N[C@@H](CC(C)C)[C@@H]3[C@@H]1C	Dose-Dependent Effect

Tested on: A2780
Experiment: Induction of apoptosis in human A2780 cells assessed as chromatin fragmentation at 1 to 9 uM measured after 48 hrs by Hoechst 33258 staining based assay
Type: functional, cell-based
Conditions: dose 1-9 µM

Compound	Activity
CC1=C[C@@H]2/C=C(\C)CC[C@@H](O)C(=O)C[C@@H](S[C@@H]3CCC[C@H](C)OC(=O)Cc4cc(O)cc(O)c4C(=O)C3)C(=O)[C@]23C(=O)N[C@@H](CC(C)C)[C@@H]3[C@@H]1C	Active

Tested on: Shigella dysenteriae
Experiment: Antibacterial activity against Shigella dysenteriae measured after 20 to 45 mins by broth microdilution method
Type: functional
Conditions: time 20-45 min

Compound	MIC [µg/mL]
CC1=C[C@@H]2/C=C(\C)CC[C@@H](O)C(=O)C[C@@H](S[C@@H]3CCC[C@H](C)OC(=O)Cc4cc(O)cc(O)c4C(=O)C3)C(=O)[C@]23C(=O)N[C@@H](CC(C)C)[C@@H]3[C@@H]1C	13 (≈ 18 µM)

Tested on: A2780
Experiment: Induction of apoptosis in human A2780 cells assessed as late apoptotic cells at 1 uM measured after 48 hrs by Annexin V-FITC/PI staining based FACS analysis (reference value: 2.32 to 2.4%)
Type: functional
Conditions: not given

Compound	Activity [%]
CC1=C[C@@H]2/C=C(\C)CC[C@@H](O)C(=O)C[C@@H](S[C@@H]3CCC[C@H](C)OC(=O)Cc4cc(O)cc(O)c4C(=O)C3)C(=O)[C@]23C(=O)N[C@@H](CC(C)C)[C@@H]3[C@@H]1C	1.71

Tested on: A2780
Experiment: Induction of apoptosis in human A2780 cells assessed as late apoptotic cells at 3 uM measured after 48 hrs by Annexin V-FITC/PI staining based FACS analysis (reference value: 2.32 to 2.4%)
Type: functional
Conditions: not given

Compound	Activity [%]
CC1=C[C@@H]2/C=C(\C)CC[C@@H](O)C(=O)C[C@@H](S[C@@H]3CCC[C@H](C)OC(=O)Cc4cc(O)cc(O)c4C(=O)C3)C(=O)[C@]23C(=O)N[C@@H](CC(C)C)[C@@H]3[C@@H]1C	2.87

Tested on: Vibrio parahaemolyticus
Experiment: Antibacterial activity against Vibrio parahaemolyticus at 25 ug/ml measured after 20 to 45 mins by broth microdilution method
Type: functional, organism-based
Conditions: dose 25.0 µg/ml, time 20-45 min

Compound	Activity
CC1=C[C@@H]2/C=C(\C)CC[C@@H](O)C(=O)C[C@@H](S[C@@H]3CCC[C@H](C)OC(=O)Cc4cc(O)cc(O)c4C(=O)C3)C(=O)[C@]23C(=O)N[C@@H](CC(C)C)[C@@H]3[C@@H]1C	inactive

Tested on: Bacillus subtilis
Experiment: Antibacterial activity against Bacillus subtilis measured after 20 to 45 mins by broth microdilution method
Type: functional
Conditions: time 20-45 min

Compound	MIC [µg/mL]
CC1=C[C@@H]2/C=C(\C)CC[C@@H](O)C(=O)C[C@@H](S[C@@H]3CCC[C@H](C)OC(=O)Cc4cc(O)cc(O)c4C(=O)C3)C(=O)[C@]23C(=O)N[C@@H](CC(C)C)[C@@H]3[C@@H]1C	6.3 (≈ 8.7 µM)

Tested on: A2780
Experiment: Induction of apoptosis in human A2780 cells assessed as necrotic cells at 9 uM measured after 48 hrs by Annexin V-FITC/PI staining based FACS analysis (reference value: 1.34 to 3.3%)
Type: functional
Conditions: not given

Compound	Activity [%]
CC1=C[C@@H]2/C=C(\C)CC[C@@H](O)C(=O)C[C@@H](S[C@@H]3CCC[C@H](C)OC(=O)Cc4cc(O)cc(O)c4C(=O)C3)C(=O)[C@]23C(=O)N[C@@H](CC(C)C)[C@@H]3[C@@H]1C	1.19

Tested on: A2780
Experiment: Induction of apoptosis in human A2780 cells assessed as necrotic cells at 1 uM measured after 48 hrs by Annexin V-FITC/PI staining based FACS analysis (reference value: 1.34 to 3.3%)
Type: functional
Conditions: not given

Compound	Activity [%]
CC1=C[C@@H]2/C=C(\C)CC[C@@H](O)C(=O)C[C@@H](S[C@@H]3CCC[C@H](C)OC(=O)Cc4cc(O)cc(O)c4C(=O)C3)C(=O)[C@]23C(=O)N[C@@H](CC(C)C)[C@@H]3[C@@H]1C	2.91

Tested on: A2780
Experiment: Induction of apoptosis in human A2780 cells assessed as early apoptotic cells at 9 uM measured after 48 hrs by Annexin V-FITC/PI staining based FACS analysis (reference value: 1.68 to 1.9%)
Type: functional
Conditions: not given

Compound	Activity [%]
CC1=C[C@@H]2/C=C(\C)CC[C@@H](O)C(=O)C[C@@H](S[C@@H]3CCC[C@H](C)OC(=O)Cc4cc(O)cc(O)c4C(=O)C3)C(=O)[C@]23C(=O)N[C@@H](CC(C)C)[C@@H]3[C@@H]1C	56.8

Tested on: A2780
Experiment: Induction of apoptosis in human A2780 cells assessed as viable cells at 1 uM measured after 48 hrs by Annexin V-FITC/PI staining based FACS analysis (reference value: 92.6 to 92.8%)
Type: functional
Conditions: read-out: Activity

Compound	viability at 1 µM [%]
CC1=C[C@@H]2/C=C(\C)CC[C@@H](O)C(=O)C[C@@H](S[C@@H]3CCC[C@H](C)OC(=O)Cc4cc(O)cc(O)c4C(=O)C3)C(=O)[C@]23C(=O)N[C@@H](CC(C)C)[C@@H]3[C@@H]1C	94

Tested on: A2780
Experiment: Induction of apoptosis in human A2780 cells assessed as early apoptotic cells at 3 uM measured after 48 hrs by Annexin V-FITC/PI staining based FACS analysis (reference value: 1.68 to 1.9%)
Type: functional
Conditions: not given

Compound	Activity [%]
CC1=C[C@@H]2/C=C(\C)CC[C@@H](O)C(=O)C[C@@H](S[C@@H]3CCC[C@H](C)OC(=O)Cc4cc(O)cc(O)c4C(=O)C3)C(=O)[C@]23C(=O)N[C@@H](CC(C)C)[C@@H]3[C@@H]1C	4.85

Tested on: A2780
Experiment: Induction of apoptosis in human A2780 cells assessed as necrotic cells at 3 uM measured after 48 hrs by Annexin V-FITC/PI staining based FACS analysis (reference value: 1.34 to 3.3%)
Type: functional
Conditions: not given

Compound	Activity [%]
CC1=C[C@@H]2/C=C(\C)CC[C@@H](O)C(=O)C[C@@H](S[C@@H]3CCC[C@H](C)OC(=O)Cc4cc(O)cc(O)c4C(=O)C3)C(=O)[C@]23C(=O)N[C@@H](CC(C)C)[C@@H]3[C@@H]1C	1.38

Tested on: A2780
Experiment: Induction of apoptosis in human A2780 cells assessed as viable cells at 3 uM measured after 48 hrs by Annexin V-FITC/PI staining based FACS analysis (reference value: 92.6 to 92.8%)
Type: functional
Conditions: read-out: Activity

Compound	viability at 3 µM [%]
CC1=C[C@@H]2/C=C(\C)CC[C@@H](O)C(=O)C[C@@H](S[C@@H]3CCC[C@H](C)OC(=O)Cc4cc(O)cc(O)c4C(=O)C3)C(=O)[C@]23C(=O)N[C@@H](CC(C)C)[C@@H]3[C@@H]1C	90.9

Tested on: Staphylococcus aureus
Experiment: Antibacterial activity against Staphylococcus aureus at 25 ug/ml measured after 20 to 45 mins by broth microdilution method
Type: functional, organism-based
Conditions: dose 25.0 µg/ml, time 20-45 min

Compound	Activity
CC1=C[C@@H]2/C=C(\C)CC[C@@H](O)C(=O)C[C@@H](S[C@@H]3CCC[C@H](C)OC(=O)Cc4cc(O)cc(O)c4C(=O)C3)C(=O)[C@]23C(=O)N[C@@H](CC(C)C)[C@@H]3[C@@H]1C	inactive

Tested on: Enterococcus faecalis
Experiment: Antibacterial activity against Enterococcus faecalis measured after 20 to 45 mins by broth microdilution method
Type: functional
Conditions: time 20-45 min

Compound	MIC [µg/mL]
CC1=C[C@@H]2/C=C(\C)CC[C@@H](O)C(=O)C[C@@H](S[C@@H]3CCC[C@H](C)OC(=O)Cc4cc(O)cc(O)c4C(=O)C3)C(=O)[C@]23C(=O)N[C@@H](CC(C)C)[C@@H]3[C@@H]1C	3.1 (≈ 4.28 µM)

Tested on: A2780
Experiment: Induction of apoptosis in human A2780 cells assessed as late apoptotic cells at 9 uM measured after 48 hrs by Annexin V-FITC/PI staining based FACS analysis (reference value: 2.32 to 2.4%)
Type: functional
Conditions: not given

Compound	Activity [%]
CC1=C[C@@H]2/C=C(\C)CC[C@@H](O)C(=O)C[C@@H](S[C@@H]3CCC[C@H](C)OC(=O)Cc4cc(O)cc(O)c4C(=O)C3)C(=O)[C@]23C(=O)N[C@@H](CC(C)C)[C@@H]3[C@@H]1C	14.9

Tested on: HeLa
Experiment: Cytotoxicity against human HeLa cells by MTT assay
Type: functional, cell-based
Conditions: not given

Compound	IC50 [µM]
CC1=C[C@@H]2/C=C(\C)CC[C@@H](O)C(=O)C[C@@H](S[C@@H]3CCC[C@H](C)OC(=O)Cc4cc(O)cc(O)c4C(=O)C3)C(=O)[C@]23C(=O)N[C@@H](CC(C)C)[C@@H]3[C@@H]1C	10

Tested on: Salmonella typhi
Experiment: Antibacterial activity against Salmonella typhi at 25 ug/ml measured after 20 to 45 mins by broth microdilution method
Type: functional, organism-based
Conditions: Salmonella enterica subsp. enterica serovar Typhi; dose 25.0 µg/ml, time 20-45 min

Compound	Activity
CC1=C[C@@H]2/C=C(\C)CC[C@@H](O)C(=O)C[C@@H](S[C@@H]3CCC[C@H](C)OC(=O)Cc4cc(O)cc(O)c4C(=O)C3)C(=O)[C@]23C(=O)N[C@@H](CC(C)C)[C@@H]3[C@@H]1C	inactive

Tested on: A2780
Experiment: Induction of apoptosis in human A2780 cells assessed as viable cells at 9 uM measured after 48 hrs by Annexin V-FITC/PI staining based FACS analysis (reference value: 92.6 to 92.8%)
Type: functional
Conditions: read-out: Activity

Compound	viability at 9 µM [%]
CC1=C[C@@H]2/C=C(\C)CC[C@@H](O)C(=O)C[C@@H](S[C@@H]3CCC[C@H](C)OC(=O)Cc4cc(O)cc(O)c4C(=O)C3)C(=O)[C@]23C(=O)N[C@@H](CC(C)C)[C@@H]3[C@@H]1C	27.1

Tested on: A2780
Experiment: Cytotoxicity against human A2780 cells by MTT assay
Type: functional, cell-based
Conditions: not given

Compound	IC50 [µM]
CC1=C[C@@H]2/C=C(\C)CC[C@@H](O)C(=O)C[C@@H](S[C@@H]3CCC[C@H](C)OC(=O)Cc4cc(O)cc(O)c4C(=O)C3)C(=O)[C@]23C(=O)N[C@@H](CC(C)C)[C@@H]3[C@@H]1C	3.9

Tested on: A2780
Experiment: Induction of apoptosis in human A2780 cells assessed as chromatin condensation at 1 to 9 uM measured after 48 hrs by Hoechst 33258 staining based assay
Type: functional, cell-based
Conditions: dose 1-9 µM

Compound	Activity
CC1=C[C@@H]2/C=C(\C)CC[C@@H](O)C(=O)C[C@@H](S[C@@H]3CCC[C@H](C)OC(=O)Cc4cc(O)cc(O)c4C(=O)C3)C(=O)[C@]23C(=O)N[C@@H](CC(C)C)[C@@H]3[C@@H]1C	Active

Tested on: A2780
Experiment: Induction of apoptosis in human A2780 cells assessed as early apoptotic cells at 1 uM measured after 48 hrs by Annexin V-FITC/PI staining based FACS analysis (reference value: 1.68 to 1.9%)
Type: functional
Conditions: not given

Compound	Activity [%]
CC1=C[C@@H]2/C=C(\C)CC[C@@H](O)C(=O)C[C@@H](S[C@@H]3CCC[C@H](C)OC(=O)Cc4cc(O)cc(O)c4C(=O)C3)C(=O)[C@]23C(=O)N[C@@H](CC(C)C)[C@@H]3[C@@H]1C	1.35

Tested on: SK-OV-3
Experiment: Cytotoxicity against human SK-OV-3 cells by MTT assay
Type: functional, cell-based
Conditions: not given

Compound	IC50 [µM]
CC1=C[C@@H]2/C=C(\C)CC[C@@H](O)C(=O)C[C@@H](S[C@@H]3CCC[C@H](C)OC(=O)Cc4cc(O)cc(O)c4C(=O)C3)C(=O)[C@]23C(=O)N[C@@H](CC(C)C)[C@@H]3[C@@H]1C	13

Tested on: HepG2
Experiment: Cytotoxicity against human HepG2 cells by MTT assay
Type: functional, cell-based
Conditions: not given

Compound	IC50 [µM]
CC1=C[C@@H]2/C=C(\C)CC[C@@H](O)C(=O)C[C@@H](S[C@@H]3CCC[C@H](C)OC(=O)Cc4cc(O)cc(O)c4C(=O)C3)C(=O)[C@]23C(=O)N[C@@H](CC(C)C)[C@@H]3[C@@H]1C	15

Tested on: A2780
Experiment: Induction of apoptosis in human A2780 cells assessed as increase in early apoptotic cells measured after 48 hrs by Annexin V-FITC/PI staining based FACS analysis
Type: functional, cell-based
Conditions: dose 1-9 µM

Compound	Activity
CC1=C[C@@H]2/C=C(\C)CC[C@@H](O)C(=O)C[C@@H](S[C@@H]3CCC[C@H](C)OC(=O)Cc4cc(O)cc(O)c4C(=O)C3)C(=O)[C@]23C(=O)N[C@@H](CC(C)C)[C@@H]3[C@@H]1C	Dose-Dependent Effect

Tested on: Escherichia coli
Experiment: Antibacterial activity against Escherichia coli at 25 ug/ml measured after 20 to 45 mins by broth microdilution method
Type: functional, organism-based
Conditions: dose 25.0 µg/ml, time 20-45 min

Compound	Activity
CC1=C[C@@H]2/C=C(\C)CC[C@@H](O)C(=O)C[C@@H](S[C@@H]3CCC[C@H](C)OC(=O)Cc4cc(O)cc(O)c4C(=O)C3)C(=O)[C@]23C(=O)N[C@@H](CC(C)C)[C@@H]3[C@@H]1C	inactive
